US8895752B2, “Alkylsulfonyl-substituted thiazolide compounds” (priority 2007, dated 2014)
“And” between values parts separate entries of the source, which are not always exact repeats. Equal entries are not always repeated. Where two headings read alike, the source gives them in different places.

Assays:
[1] = tested on: AVA5 cells; experiment: Cytotoxicity by neutral red dye uptake in AVA5 cells; assay type: cell-based; settings: Genotype 1b replicon, 3 days
[2] = tested on: HCV replicon, sub-genomic CON1, genotype 1b; experiment: 3-day HCV replicon assay in AVA5 cells (intracellular HCV RNA, blot hybridization); assay type: cell-based, Hepatitis C Virus; settings: Genotype 1b replicon, 3 days; first compound listed for combinations
Procedure: (§1) Antiviral activity of test compounds was assessed in a 3-day assay using the stably-expressing HCV replicon cell line, AVA5 (sub-genomic CON1, genotype 1b) (Blight et al., 2000) maintained as sub-confluent cultures on 96-well plates as previously described (Okuse et al., 2005). Antiviral activity was determined by blot hybridization analysis of intracellular HCV RNA (normalized to the level of cellular B-actin RNA in each culture sample) and cytotoxicity was assessed by neutral red dye uptake after 3 days of treatment. Additional studies were performed using Huh7 cells containing another HCV replicon, H/FL-Neo, a genotype 1a full length construct (Blight et al., 2003). For studies involving human serum, standard culture medium (which contains 10% fetal bovine serum) and assay conditions were maintained.
(§2) EC50, EC90 and CC50 values (±standard deviations [S.D.]) were calculated by linear regression analysis using data combined from all treated cultures (Korba and Gerin, 1992; Okuse et al., 2005). […] Selectivity index (S.I.) was calculated as CC50/EC90 for HBV assays and CC50/EC50 for HCV assays. EC90 values were used for calculation of the S.I. in HBV assays since at least a […] depression of HBV DNA levels is typically required to achieve statistical significance in this assay system (Korba and Gerin, 1992). For combination treatments, EC50, EC90, CC50 and S.I. are presented for the first compound listed. The molar ratio of the compounds in each combination is also indicated.

[3] = tested on: LMV-resistant and ADV-resistant HBV mutants; experiment: Activity against drug-resistant HBV mutants, transient transfection in Huh7 cells (overall statement); assay type: cell-based, Hepatitis B Virus; settings: all drug-resistant viruses tested
Procedure: (§3) Activity against LMV-resistant (Allen et al., 1998) and ADV-resistant (Angus et al., 2003) HBV mutants was performed in a 5-day assay using a transient transfection method as previously described (Iyer et al., 2004). Antiviral activity was determined by quantitative Southern blot hybridization of intracellular HBV DNA replication intermediates (HBV RI).

[4] = tested on: 2.2.15 cells; experiment: Cytotoxicity by neutral red dye uptake in 2.2.15 cells; settings: confluent 2.2.15 cultures, nine daily doses, neutral red uptake
Procedure: HBV antiviral assays were conducted as previous described (Korba and Gerin, 1992).
as §2

[5] = tested on: HBV; experiment: HBV antiviral assay in confluent 2.2.15 cell cultures (HBV DNA, quantitative blot hybridization); assay type: cell-based, Hepatitis B Virus; settings: 2.2.15 cells, nine daily doses
Procedure: EC50, EC90 and CC50 values (±standard deviations [S.D.]) were calculated by linear regression analysis using data combined from all treated cultures (Korba and Gerin, 1992; Okuse et al., 2005). […] Selectivity index (S.I.) was calculated as CC50/EC90 for HBV assays and CC50/EC50 for HCV assays. EC90 values were used for calculation of the S.I. in HBV assays since at least a 3-fold depression of HBV DNA levels is typically required to achieve statistical significance in this assay system (Korba and Gerin, 1992).

[6] = tested on: HBV Mutant L180M; experiment: 5-day transient transfection assay in Huh7 cells, intracellular HBV RI by Southern blot; assay type: cell-based, Hepatitis B Virus; settings: L180M
Procedure: as §3

[7] = tested on: HBV Mutant M204V; experiment: as above; assay type: cell-based, Hepatitis B Virus; settings: M204V
Procedure: as §3

[8] = tested on: HBV Mutant L180M/M204V; experiment: as above; assay type: cell-based, Hepatitis B Virus; settings: L180M/M204V
Procedure: as §3

[9] = tested on: HBV Mutant M204I; experiment: as above; assay type: cell-based, Hepatitis B Virus; settings: M204I
Procedure: as §3

[10] = tested on: HBV Mutant N236T; experiment: as above; assay type: cell-based, Hepatitis B Virus; settings: N236T
Procedure: as §3

[11] = tested on: Wild-type HBV; experiment: as above; assay type: cell-based, Hepatitis B Virus; settings: Wild-type, Huh7 transient transfection
[12] = Primary HCV replicon cell assay, cytotoxicity; settings: human, HCV replicon cells (primary assay), CC50, primary assay
Procedure: as §1, §2

[13] = tested on: HCV replicon; experiment: Primary HCV replicon cell assay; assay type: cell-based, Hepatitis C Virus; settings: Hepatitis C virus
Procedure: as §1, §2

[14] = read-out: Extracellular virion DNA EC50
[15] = read-out: Extracellular virion DNA EC90
[16] = read-out: Intracellular HBV RI EC50

melting point | SMILES | CC50 [1] [nM] | EC50 [2] [nM] | EC90 [2] [nM] | CC50 [4] [nM] | EC50 [5, 14] [nM] | EC90 [5, 15] [nM] | further results
– | Cc1ccc(O)c(C(=O)Nc2ncc(Cl)s2)c1 [RM4850] | 2300 ± 200 | > 20000 | > 20000 | > 100000 | 330 ± 70 | 830 ± 100 | differences in potency against drug-resistant viruses relative to wild-type HBV [3]: No significant differences; EC50 [5, 16]: 900 ± 100 nM; EC50 ([6]; read-out: EC50): 830 ± 90 nM; EC90 ([6]; read-out: EC90): 2200 ± 200 nM; EC50 ([7]; read-out: EC50): 800 ± 100 nM; EC90 ([7]; read-out: EC90): 2100 ± 300 nM; EC50 ([8]; read-out: EC50): 870 ± 110 nM; EC90 ([8]; read-out: EC90): 2100 ± 300 nM; EC50 ([9]; read-out: EC50): 1000 ± 200 nM; EC90 ([9]; read-out: EC90): 2400 ± 300 nM; EC50 ([10]; read-out: EC50): 670 ± 80 nM; EC90 ([10]; read-out: EC90): 2200 ± 200 nM; EC90 [11]: 2000 ± 300 nM; EC50 ([11]; read-out: EC50): 730 ± 80 nM
235 to 236 °C | CCCCS(=O)(=O)c1cnc(NC(=O)c2ccccc2O)s1 | – | – | – | – | – | – | –
– | O=C(Nc1ncc(Cl)s1)c1ccccc1O [RM4848] | 15000 ± 100 | > 20000 | > 20000 | > 100000 | 370 ± 70 | 1700 ± 200 | –
– | CC(=O)Oc1ccccc1C(=O)Nc1ncc(S(C)(=O)=O)s1 [Compound 7, 2-(5-(methylsulfonyl)thiazol-2-ylcarbamoyl)phenyl acetate] | – | – | – | – | – | – | CC50 at 3 days [12]: 20000 nM; EC50 [13]: > 10000 nM; EC90 [13]: > 10000 nM
– | CC(=O)Oc1ccccc1C(=O)Nc1nc(S(C)(=O)=O)cs1 [Compound 62, 2-{[4-(methylsulfonyl)-1,3-thiazol-2-yl]carbamoyl}phenyl acetate] | – | – | – | – | – | – | CC50 at 3 days [12]: > 100000 nM; EC50 [13]: > 10000 nM; EC90 [13]: > 10000 nM
193.3 to 195.5 °C and 193.5 to 195.5 °C | CSc1cnc(NC(=O)c2ccc(OC(C)=O)cc2)s1 | – | – | – | – | – | – | –
180 to 181 °C | CCCCSc1cnc(NC(=O)c2ccccc2O)s1 | – | – | – | – | – | – | –
135.2 to 136.2 °C | CSc1cnc(NC(=O)c2cccc(OC(C)=O)c2)s1 | – | – | – | – | – | – | –
– | Cc1cccc(C(=O)Nc2ncc(Cl)s2)c1O [RM4851] | 5600 ± 300 | > 20000 | > 20000 | > 100000 | > 10000 | > 10000 | EC50 [5, 16]: > 10000 nM; EC90 ([5]; read-out: Intracellular HBV RI EC90): > 10000 nM
